In patent publication US12194013B2 (SICHUAN JIUZHANG BIOLOGICAL SCIENCE AND TECHNOLOGY CO., LTD., priority 2018, dated 2025):
Marks after values point to notes of the source that are not given here.

Key:
[1] = system: human skin squamous cell carcinoma A431 cells; experiment: Inhibition of cell proliferation (MTT method); type: cell-based; settings: 72 h
Experimental: (§1) A431 cell lines were seeded in IMDM medium, containing 10% fetal bovine serum, 100 U·ml^−1 penicillin, and 100 μg·ml^−1 streptomycin, and then cultured in 37° C., 5% CO2 incubator. Cells were passaged one generation at 48-72 h, and the cells in the logarithmic growth phase were collected for the experiment.
The cells in logarithmic growth phase were inoculated on 96 well plate and further cultured for 24 hours, then divided into experimental groups and blank control group. […] The blank control group was added with the same volume of IMDM culture medium without test substance. Six multiple wells were set for each concentration. After 72 hours, the newly prepared MTT solution was added. After further culturing for 4 h, DMSO solution was added and shook, so that the crystals were fully dissolved. The absorbance value (A570 nm) of each well was measured on the microplate reader.

[2] = system: human skin squamous cell carcinoma A431 cells; experiment: Detecting apoptosis by flow cytometry (Annexin V-FITC/PI); type: cell-based; settings: 72 h
Experimental: as §1
The cells of each group treated with different concentrations of test substance for 72 h were collected and made into single cell suspension. The living cells were labeled with Annexin V-FITC and PI. After mixing, the cells were incubated in dark for 15 min at room temperature, and then 1× binding buffer was added and mixed, before the apoptotic cells were detected by flow cytometry and analyzed by Multicyc AV software.

[3] = system: head and neck squamous cell carcinoma SCCVII cell lines; experiment: Transplanted tumor of head and neck squamous cell carcinoma SCCVII cell lines in mice; type: in vivo, mouse; settings: 30 mg·kg^−1 intraperitoneally once a day; for Tumor volume / Tumor weight / Tumor inhibition rate: C3H/HeJ mice, SCCVII; for Tumor weight: at end of experiment; for Tumor inhibition rate: from average tumor weight vs negative group
Experimental: When the cells grew vigorously, they were digested with 0.25% trypsin, washed with phosphate buffer, and prepared as cell suspension at 3×10^6 cells/ml for use.
0.1 ml cell suspension was subcutaneously injected into the armpit of the left forelimb of mice. They were randomly divided into groups, 10 mice for one group, including test drug group 1, test drug group 2, test drug group 3, test drug group 4, test drug group 5, test drug group 6, test drug group 7, and negative group (N.S.), respectively. The drug was given on the second day after inoculation. The test drug group was intraperitoneally injected at a dose of 30 mg·kg^−1, once a day, and the administration volume was 1.0 ml; in the negative group, the same volume of normal saline was intraperitoneally injected, once a day.
The tumor volume (v=0.52×the long diameter of transplanted tumor L×the shortest diameter of transplanted tumor W^2) was measured on the 5th day after inoculation, and the mice were weighed every three days. When the tumor volume of the negative group was about 1.0 cm^3, the experiment was stopped, and the mice were killed by cervical dislocation and weighed.

| Compound | Apoptosis rate of each experimental group ([2]; 1 μg/ml) [%] | Apoptosis rate of each experimental group ([2]; 2 μg/ml) [%] | Apoptosis rate of each experimental group ([2]; 4 μg/ml) [%] | Apoptosis rate of each experimental group ([2]; 8 μg/ml) [%] | Apoptosis rate of each experimental group ([2]; 16 μg/ml) [%] | Apoptosis rate of each experimental group ([2]; 32 μg/ml) [%] | Apoptosis rate of each experimental group ([2]; 64 μg/ml) [%] | Apoptosis rate of each experimental group ([2]; 128 μg/ml) [%] | inhibitory effect on the tumors in mice transplanted with SCCVII cell lines, compared with the negative group (in words) [3] | Tumor volume ([3]; 5 d after inoculation) [cm^3] | Tumor volume ([3]; 8 d after inoculation) [cm^3] | Tumor volume ([3]; 10 d after inoculation) [cm^3] | Tumor volume ([3]; 13 d after inoculation) | Tumor volume ([3]; 15 d after inoculation) | Tumor volume ([3]; 18 d after inoculation) | Tumor weight [3] | Tumor inhibition rate [3] [%] | other results |
| --- | --- | --- | --- | --- | --- | --- | --- | --- | --- | --- | --- | --- | --- | --- | --- | --- | --- | --- |
| O=C(/C=C/c1ccc(O)c(O)c1)O[C@@H]1C[C@](O)(C(=O)O)C[C@@H](O)[C@H]1O [Chlorogenic acid] | 0.57 ± 0.04 | 0.57 ± 0.05 | 0.61 ± 0.06 | 0.71 ± 0.11 | 1.99 ± 0.57 | 4.56 ± 1.08 | 4.73 ± 1.22 | 4.87 ± 0.74 | significant differences | 0.124 ± 0.083 | 0.222 ± 0.079 | 0.347 ± 0.102 | 0.436 ± 0.172* cm^3 | 0.483 ± 0.136* cm^3 | 0.545 ± 0.224* cm^3 | 1.43 ± 0.074 g | 41.15 | inhibition at 1 µg/mL ([1]; Homo sapiens, A-431, A431 cells, 1 μg/ml, read-out: The inhibition rate of each experimental group): 1.12 ± 0.47%; inhibition at 2 µg/mL ([1]; Homo sapiens, A-431, A431 cells, 2 μg/ml, read-out: The inhibition rate of each experimental group): 1.38 ± 0.53%; inhibition at 4 µg/mL ([1]; Homo sapiens, A-431, A431 cells, 4 μg/ml, read-out: The inhibition rate of each experimental group): 5.63 ± 2.29%; inhibition at 8 µg/mL ([1]; Homo sapiens, A-431, A431 cells, 8 μg/ml, read-out: The inhibition rate of each experimental group): 11 ± 4.71%; inhibition at 16 µg/mL ([1]; Homo sapiens, A-431, A431 cells, 16 μg/ml, read-out: The inhibition rate of each experimental group): 18.6 ± 4.82%; inhibition at 32 µg/mL ([1]; Homo sapiens, A-431, A431 cells, 32 μg/ml, read-out: The inhibition rate of each experimental group): 24.5 ± 9.69%; inhibition at 64 µg/mL ([1]; Homo sapiens, A-431, A431 cells, 64 μg/ml, read-out: The inhibition rate of each experimental group): 31.4 ± 7.35%; inhibition at 128 µg/mL ([1]; Homo sapiens, A-431, A431 cells, 128 μg/ml, read-out: The inhibition rate of each experimental group): 36.3 ± 10.8% |
| O=C(/C=C/c1ccc(O)cc1)O[C@@H]1C[C@](O)(C(=O)O)C[C@@H](O)[C@H]1O [Coumaroylquinic acid] | 0.53 ± 0.03 | 0.55 ± 0.05 | 0.56 ± 0.04 | 0.64 ± 0.13 | 0.69 ± 0.41 | 1.37 ± 0.36 | 2.26 ± 0.69 | 3.07 ± 1.23 | not obvious | 0.124 ± 0.047 | 0.258 ± 0.121 | 0.369 ± 0.114 | 0.604 ± 0.225* cm^3 | 0.653 ± 0.111* cm^3 | 0.811 ± 0.108* cm^3 | 2.11 ± 0.129^ g | 13.17 | inhibitory effect on human skin squamous cell carcinoma A431 (in words) ([1]; 1-128 μg/ml): not obvious; The inhibition rate of each experimental group ([1]; A431 cells, 1 μg/ml): 1.24 ± 0.81%; The inhibition rate of each experimental group ([1]; A431 cells, 2 μg/ml): 1.28 ± 0.69%; The inhibition rate of each experimental group ([1]; A431 cells, 4 μg/ml): 1.33 ± 0.42%; The inhibition rate of each experimental group ([1]; A431 cells, 8 μg/ml): 2.41 ± 0.58%; The inhibition rate of each experimental group ([1]; A431 cells, 16 μg/ml): 2.62 ± 0.86%; The inhibition rate of each experimental group ([1]; A431 cells, 32 μg/ml): 5.77 ± 0.92%; The inhibition rate of each experimental group ([1]; A431 cells, 64 μg/ml): 6.83 ± 1.02%; The inhibition rate of each experimental group ([1]; A431 cells, 128 μg/ml): 8.11 ± 0.63%; Tumor volume ([3]; 22 d after inoculation): 0.954 ± 0.203* cm^3 |
